# Test results published in ChEMBL document CHEMBL2440066, “Acidic biphenyl derivatives: synthesis and biological activity of a new series of potent 5-HT(4) receptor antagonists” (Bioorg Med Chem, 2013).
# Tests used:
# [1] = biological target: 5-hydroxytryptamine receptor 4 (Rattus norvegicus) (UniProt Q62758); test: Antagonist activity at 5-HT4 receptor in rat carbachol-contracted esophagus muscularis mucosae assessed as inhibition of 5-HT-induced relaxation
# [2] = biological target: T1, Type-1 angiotensin II receptor (Homo sapiens, UniProt P30556); test: Displacement of [tyrosyl-3,5-3H]angiotensin-2 from AT1 receptor (unknown origin) expressed in QBI-HEK293A cells after 2 hrs; type: cell-based, HEK293-A
# T1 sequence (P30556 whole entry): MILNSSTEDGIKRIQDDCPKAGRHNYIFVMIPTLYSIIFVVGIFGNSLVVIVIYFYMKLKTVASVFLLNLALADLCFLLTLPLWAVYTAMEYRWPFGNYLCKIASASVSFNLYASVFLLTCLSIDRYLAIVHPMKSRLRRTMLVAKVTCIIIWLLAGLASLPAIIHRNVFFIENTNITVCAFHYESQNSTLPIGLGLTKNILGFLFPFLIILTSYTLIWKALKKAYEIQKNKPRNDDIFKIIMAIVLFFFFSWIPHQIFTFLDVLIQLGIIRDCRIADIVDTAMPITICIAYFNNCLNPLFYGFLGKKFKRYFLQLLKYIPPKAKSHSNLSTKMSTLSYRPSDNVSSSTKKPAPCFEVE
# [3] = biological target: T2, 5-hydroxytryptamine receptor 4 (Homo sapiens, UniProt Q13639); test: Displacement of [3H]GR113808 from human 5HT4B receptor expressed in HEK293 cells; type: cell-based
# T2 sequence (Q13639 whole entry): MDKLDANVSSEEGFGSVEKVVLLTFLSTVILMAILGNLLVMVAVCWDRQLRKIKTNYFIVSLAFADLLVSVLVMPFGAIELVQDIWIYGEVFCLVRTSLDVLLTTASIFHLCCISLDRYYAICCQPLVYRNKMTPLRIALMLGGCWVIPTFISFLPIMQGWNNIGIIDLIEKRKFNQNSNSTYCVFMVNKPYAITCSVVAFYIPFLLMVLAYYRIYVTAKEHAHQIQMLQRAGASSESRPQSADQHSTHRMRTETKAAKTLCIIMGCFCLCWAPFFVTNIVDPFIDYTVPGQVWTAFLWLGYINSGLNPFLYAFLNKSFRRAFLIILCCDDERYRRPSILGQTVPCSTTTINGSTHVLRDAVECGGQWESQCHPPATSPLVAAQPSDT
# [4] = Apparent permeability of the compound in human Caco2 cells at 1 uM; type: ADME, cell-based; details: Caco-2
# [5] = biological target: 5-hydroxytryptamine receptor 4 (Cavia porcellus, UniProt O70528); test: Displacement of [125I]SB207710 from 5-HT4 receptor in guinea pig brain membranes; type: cell membranes, Membrane
# Chain of 5-hydroxytryptamine receptor 4 (Cavia porcellus, UniProt O70528) (O70528 whole entry): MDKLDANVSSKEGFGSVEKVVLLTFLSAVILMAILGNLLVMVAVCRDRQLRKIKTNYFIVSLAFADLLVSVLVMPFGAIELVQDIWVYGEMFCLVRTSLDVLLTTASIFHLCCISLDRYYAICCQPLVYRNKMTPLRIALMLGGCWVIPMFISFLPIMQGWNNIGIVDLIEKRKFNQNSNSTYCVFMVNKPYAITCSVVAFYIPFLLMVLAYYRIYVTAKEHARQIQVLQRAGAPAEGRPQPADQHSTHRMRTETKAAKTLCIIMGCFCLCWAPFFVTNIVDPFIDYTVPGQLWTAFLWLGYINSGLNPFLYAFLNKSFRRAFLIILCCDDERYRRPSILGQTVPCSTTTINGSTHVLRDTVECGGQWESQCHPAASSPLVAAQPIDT
# [6] = biological target: T2, 5-hydroxytryptamine receptor 4; test: Displacement of [125I]SB207710 from human recombinant 5-HT4 receptor
# [7] = Octanol-buffer partition coefficient, log D of the compound at pH 7.4; type: physicochemical
# [8] = biological target: 5-hydroxytryptamine receptor 4 (Rattus norvegicus) (UniProt Q62758); test: Antagonist activity at 5-HT4 receptor in rat esophagus assessed as inhibition of 5-HT-induced relaxation; type: tissue-based
# Rattus norvegicus [9] = test: Elimination half life in Sprague-Dawley rat assessed as 4'-((4-(((3,4-Dihydro-2H-[1,3]oxazino[3,2-a]indole-10-carbonyl)oxy)methyl)piperidin-1-yl)methyl)[1,1'-biphenyl]-2-carboxylic acid level at 10 mg/kg, po; type: ADME, organism-based; parameters: dose 10 mg/kg, route oral; details: in vivo
# Rattus norvegicus [10] = test: Tmax in Sprague-Dawley rat assessed as 4'-((4-(((3,4-Dihydro-2H-[1,3]oxazino[3,2-a]indole-10-carbonyl)oxy)methyl)piperidin-1-yl)methyl)[1,1'-biphenyl]-2-carboxylic acid level at 10 mg/kg, po; type: ADME, organism-based; parameters: dose 10 mg/kg, route oral; details: in vivo
# Rattus norvegicus [11] = test: Cmax in Sprague-Dawley rat assessed as 4'-((4-(((3,4-Dihydro-2H-[1,3]oxazino[3,2-a]indole-10-carbonyl)oxy)methyl)piperidin-1-yl)methyl)[1,1'-biphenyl]-2-carboxylic acid level at 10 mg/kg, po; type: ADME, organism-based; parameters: dose 10 mg/kg, route oral; details: in vivo
# Rattus norvegicus [12] = test: AUC (0 to infinity) in Sprague-Dawley rat assessed as 4'-((4-(((3,4-Dihydro-2H-[1,3]oxazino[3,2-a]indole-10-carbonyl)oxy)methyl)piperidin-1-yl)methyl)[1,1'-biphenyl]-2-carboxylic acid level at 10 mg/kg, po; type: ADME, organism-based, Plasma; parameters: time infinity, dose 10 mg/kg, route oral; details: in vivo
# Rattus norvegicus [13] = test: AUC (0 to 6 hrs) in Sprague-Dawley rat assessed as 4'-((4-(((3,4-Dihydro-2H-[1,3]oxazino[3,2-a]indole-10-carbonyl)oxy)methyl)piperidin-1-yl)methyl)[1,1'-biphenyl]-2-carboxylic acid level at 10 mg/kg, po; type: ADME, organism-based, Plasma; parameters: time < 6 hr, dose 10 mg/kg, route oral; details: in vivo
# [14] = Tmax in Sprague-Dawley rat at 10 mg/kg, po; type: ADME, organism-based; parameters: dose 10 mg/kg, route oral; details: in vivo
# [15] = Cmax in Sprague-Dawley rat at 10 mg/kg, po; type: ADME, organism-based; parameters: dose 10 mg/kg, route oral; details: in vivo
# [16] = AUC (0 to 6 hrs) in Sprague-Dawley rat at 10 mg/kg, po; type: ADME, organism-based; parameters: time < 6 hr, dose 10 mg/kg, route oral; details: plasma
# hERG (KCNH2) [17] = biological target: T3, hERG (KCNH2) (Homo sapiens, UniProt Q12809); test: Inhibition of human ERG expressed in HEK293 cells at 50 uM by patch-clamp technique; type: cell-based; details: HEK293 cells that express hERG
# T3 sequence (Q12809 whole entry): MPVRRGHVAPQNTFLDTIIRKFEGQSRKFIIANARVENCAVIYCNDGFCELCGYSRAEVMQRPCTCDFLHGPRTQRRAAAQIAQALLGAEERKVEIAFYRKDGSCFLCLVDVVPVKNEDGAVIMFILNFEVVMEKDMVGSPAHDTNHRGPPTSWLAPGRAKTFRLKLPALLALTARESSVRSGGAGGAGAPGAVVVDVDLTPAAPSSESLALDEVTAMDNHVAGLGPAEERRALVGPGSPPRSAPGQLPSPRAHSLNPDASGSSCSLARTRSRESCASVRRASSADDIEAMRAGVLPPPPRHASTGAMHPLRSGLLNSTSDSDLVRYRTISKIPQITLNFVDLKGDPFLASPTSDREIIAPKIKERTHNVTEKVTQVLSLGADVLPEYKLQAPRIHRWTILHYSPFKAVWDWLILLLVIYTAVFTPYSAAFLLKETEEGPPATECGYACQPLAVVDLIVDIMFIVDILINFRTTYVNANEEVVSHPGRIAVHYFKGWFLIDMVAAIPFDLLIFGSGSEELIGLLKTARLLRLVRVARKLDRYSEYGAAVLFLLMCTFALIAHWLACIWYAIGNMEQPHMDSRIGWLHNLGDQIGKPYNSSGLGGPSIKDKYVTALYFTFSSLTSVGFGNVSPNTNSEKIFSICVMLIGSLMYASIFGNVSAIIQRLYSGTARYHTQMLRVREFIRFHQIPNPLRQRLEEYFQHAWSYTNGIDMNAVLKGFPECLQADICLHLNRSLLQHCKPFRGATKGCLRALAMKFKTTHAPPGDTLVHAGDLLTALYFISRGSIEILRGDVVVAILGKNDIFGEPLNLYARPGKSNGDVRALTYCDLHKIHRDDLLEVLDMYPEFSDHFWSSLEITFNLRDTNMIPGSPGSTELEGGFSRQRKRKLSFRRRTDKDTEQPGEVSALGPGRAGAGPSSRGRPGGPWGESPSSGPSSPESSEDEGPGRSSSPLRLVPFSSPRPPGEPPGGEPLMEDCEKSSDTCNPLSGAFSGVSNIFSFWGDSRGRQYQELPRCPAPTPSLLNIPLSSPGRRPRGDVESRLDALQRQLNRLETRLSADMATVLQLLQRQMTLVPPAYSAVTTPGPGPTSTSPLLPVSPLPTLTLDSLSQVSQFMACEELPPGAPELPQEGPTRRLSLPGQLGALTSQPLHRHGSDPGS
# [18] = biological target: Voltage-gated inwardly rectifying potassium channel KCNH2 (Homo sapiens, UniProt Q12809); test: Inhibition of human ERG expressed in HEK293 cells by patch-clamp technique; type: cell-based
# Chain of Voltage-gated inwardly rectifying potassium channel KCNH2 (Q12809 whole entry): as above
# 3T3-L1 = test: Cytotoxicity against mouse 3T3L1 cells assessed as cell death at 5 ug/ml after 72 hrs by neutral red assay; type: cell-based; details: 3t3-l1, 72 h
# [19] = biological target: T2, 5-hydroxytryptamine receptor 4; test: Antagonist activity at human 5HT4B receptor expressed in HEK293 cells assessed as inhibition of 5HT-stimulated adenylyl cyclase activity; type: functional, cell-based
# hERG (KCNH2) [20] = biological target: T3, hERG (KCNH2); test: Inhibition of human ERG expressed in HEK293 cells at 100 uM by patch-clamp technique; type: cell-based; details: HEK293 cells that express hERG
# hERG (KCNH2) [21] = biological target: T3, hERG (KCNH2); test: Inhibition of human ERG expressed in HEK293 cells at 10 uM by patch-clamp technique; type: cell-based; details: HEK293 cells that express hERG
# Chain of 5-hydroxytryptamine receptor 4 (Rattus norvegicus) (Q62758 whole entry): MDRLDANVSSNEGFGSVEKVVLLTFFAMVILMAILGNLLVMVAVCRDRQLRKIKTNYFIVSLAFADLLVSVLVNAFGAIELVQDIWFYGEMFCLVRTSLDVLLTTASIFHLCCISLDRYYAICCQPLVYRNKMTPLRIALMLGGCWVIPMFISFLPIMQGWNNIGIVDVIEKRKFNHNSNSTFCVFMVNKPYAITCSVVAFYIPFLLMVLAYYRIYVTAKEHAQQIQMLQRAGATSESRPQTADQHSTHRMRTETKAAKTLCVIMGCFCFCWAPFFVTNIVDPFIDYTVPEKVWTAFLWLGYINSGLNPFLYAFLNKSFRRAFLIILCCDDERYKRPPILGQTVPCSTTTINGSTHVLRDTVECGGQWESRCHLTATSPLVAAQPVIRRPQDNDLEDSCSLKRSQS
smiles,measurement,setting,value
CCCCN1CCC(CCC(=O)c2cc(Cl)c(N)c3c2OCCO3)CC1,pKb,[1],9.9
O=C(O)c1ccccc1-c1ccc(CN2CCC(CNC(=O)c3c4n(c5ccccc35)CCCO4)CC2)cc1,Ki,[2],> 10 µM
same,Ki,[3],0.631 nM
COC(=O)c1ccccc1-c1ccc(CN2CCC(CNC(=O)c3c4n(c5ccccc35)CCCO4)CC2)cc1,Ki,[2],> 10 µM
same,Ki,[3],0.0631 nM
CS(=O)(=O)NCCN1CCC(CCC(=O)c2cc(Cl)c(N)c3c2OCCO3)CC1,pKb,[1],9.9
CC(C)NCC(O)c1ccc(NS(C)(=O)=O)cc1 (stereo unspecified) [SOTALOL],Papp at 1 µM,[4],0.8 ×10⁻⁶ cm/s
CCCCN1CCC(CNC(=O)c2c3n(c4cc(O)ccc24)CCCO3)CC1,Ki,[5],794 nM
same,Ki,[6],794 nM
CC(C)(C)C(=O)OCn1nnc(-c2ccccc2-c2ccc(CN3CCC(COC(=O)c4c5n(c6ccccc46)CCCO5)CC3)cc2)n1.CS(=O)(=O)O,Papp at 1 µM,[4],5.1 ×10⁻⁶ cm/s
same,logD,[7],4.3
CC(C)CCOC(=O)c1ccccc1-c1ccc(CN2CCC(COC(=O)c3c4n(c5ccccc35)CCCO4)CC2)cc1.CS(=O)(=O)O,Papp at 1 µM,[4],5.4 ×10⁻⁶ cm/s
same,logD,[7],4.9
Cc1noc(-c2ccccc2NC(=O)OCC2CCN(CCNS(C)(=O)=O)CC2)n1,pKb,[8],10.8
Nc1c(Cl)cc(C(=O)CCC2CCN(CCCc3ccccc3)CC2)c2c1OCCO2,pKb,[1],9.6
CCCCOC(=O)c1ccccc1-c1ccc(CN2CCC(COC(=O)c3c4n(c5ccccc35)CCCO4)CC2)cc1.CS(=O)(=O)O,beta t1/2,Rattus norvegicus [9],595 min
same,Tmax,Rattus norvegicus [10],120 min
same,Cmax,Rattus norvegicus [11],10 ng/mL
same,AUC,Rattus norvegicus [12],124 ng·h/mL
same,AUC,Rattus norvegicus [13],39 ng·h/mL
same,Tmax,[14],6 h
same,Cmax,[15],80 ng/mL
same,Papp at 1 µM,[4],13.9 ×10⁻⁶ cm/s
same,logD,[7],4.9
same,AUC(0-t) at 6 h,[16],313 ng·h/mL
COc1ccc(CCCN2CCC(CCC(=O)c3cc(Cl)c(N)c4c3OCCO4)CC2)cc1,pKb,[1],10.6
Cl.O=C(OCc1ccccc1)c1ccccc1-c1ccc(CN2CCC(COC(=O)c3c4n(c5ccccc35)CCCO4)CC2)cc1,Papp at 1 µM,[4],1.1 ×10⁻⁶ cm/s
same,logD,[7],5.1
O=C(OCC1CCN(Cc2ccc(-c3ccccc3-c3nn[nH]n3)cc2)CC1)c1c2n(c3ccccc13)CCCO2,inhibition at 50 µM,hERG (KCNH2) [17],35%
same,Papp at 1 µM,[4],2.9 ×10⁻⁶ cm/s
same,logD,[7],1.6
same,Ki,[2],> 10 µM
same,Ki,[3],2.51 nM
same,IC50,[18],27.5 µM
same,Activity,3T3-L1,0%
O=C(OCC1CCN(Cc2ccc(-c3ccccc3-c3nnn[nH]3)cc2)CC1)c1c2n(c3ccccc13)CCCO2,pKb,[19],10.6
CCCCN1CCC(CNC(=O)c2c3n(c4ccccc24)CCCO3)CC1 [PIBOSEROD],Ki,[2],> 10 µM
same,pKb,[19],9.5
same,Ki,[5],1.58 nM
same,Ki,[6],1.58 nM
O=C(NCC1CCNCC1)c1c2n(c3ccccc13)CCCO2,Ki,[5],63.1 nM
same,Ki,[6],63.1 nM
CC(C)(C)C(=O)OCOC(=O)c1ccccc1-c1ccc(CN2CCC(COC(=O)c3c4n(c5ccccc35)CCCO4)CC2)cc1.CS(=O)(=O)O,Papp at 1 µM,[4],9 ×10⁻⁶ cm/s
same,logD,[7],4.7
Cn1cc(C(=O)OCC2CCN(CCNS(C)(=O)=O)CC2)c2ccccc21,pKb,[19],8.7
CC(O)CCN1CCC(CNC(=O)c2c3n(c4ccccc24)CCCO3)CC1 (stereo unspecified),Ki,[5],0.794 nM
same,Ki,[6],0.794 nM
COc1ccc(NC(=O)OCC2CCN(CCNS(C)(=O)=O)CC2)c(-c2nc(C)no2)c1,pKb,[8],8.1
Cc1noc(-c2ccc(F)cc2NC(=O)OCC2CCN(CCNS(C)(=O)=O)CC2)n1,pKb,[8],8.9
CS(=O)(=O)O.O=C(O)c1ccccc1-c1ccc(CN2CCC(COC(=O)c3c4n(c5ccccc35)CCCO4)CC2)cc1,inhibition at 100 µM,hERG (KCNH2) [20],31%
same,Papp at 1 µM,[4],0.8 ×10⁻⁶ cm/s
same,logD,[7],1.3
same,Ki,[2],1.58 µM
same,pKb,[19],9.8
same,Ki,[3],0.0501 nM
same,IC50,[18],47.5 µM
same,Activity,3T3-L1,14%
O=C(NCC1CCN(Cc2ccc(-c3ccccc3-c3nnn[nH]3)cc2)CC1)c1c2n(c3ccccc13)CCCO2,Ki,[2],> 10 µM
same,pKb,[19],9.7
same,Ki,[3],3.98 nM
same,Activity,3T3-L1,0%
COC(=O)c1ccccc1-c1ccc(CN2CCC(COC(=O)c3c4n(c5ccccc35)CCCO4)CC2)cc1.CS(=O)(=O)O,beta t1/2,Rattus norvegicus [9],936 min
same,Tmax,Rattus norvegicus [10],60 min
same,Cmax,Rattus norvegicus [11],30 ng/mL
same,AUC,Rattus norvegicus [12],542 ng·h/mL
same,AUC,Rattus norvegicus [13],114 ng·h/mL
same,inhibition at 10 µM,hERG (KCNH2) [21],2%
same,Tmax,[14],2 h
same,Cmax,[15],244 ng/mL
same,Papp at 1 µM,[4],25 ×10⁻⁶ cm/s
same,logD,[7],4.5
same,Ki,[2],> 10 µM
same,pKb,[19],10.6
same,Ki,[3],0.00126 nM
same,IC50,[18],0.131 µM
same,Activity,3T3-L1,75%
same,AUC(0-t) at 6 h,[16],1110 ng·h/mL
CS(=O)(=O)O.Cc1oc(=O)oc1COC(=O)c1ccccc1-c1ccc(CN2CCC(COC(=O)c3c4n(c5ccccc35)CCCO4)CC2)cc1,Papp at 1 µM,[4],16.1 ×10⁻⁶ cm/s
same,logD,[7],4.6
CC(=O)OCOC(=O)c1ccccc1-c1ccc(CN2CCC(COC(=O)c3c4n(c5ccccc35)CCCO4)CC2)cc1.CS(=O)(=O)O,Papp at 1 µM,[4],1.4 ×10⁻⁶ cm/s
same,logD,[7],4.5
